{"source": "paper PMC4104029", "about": "“Mechanism of Action of Compound-13: An α1-Selective Small Molecule Activator of AMPK” (Chemistry & Biology, 2014)", "key": {"[1]": {"target": "T1, AMPKα1 complexes in primary hepatocytes (Mus musculus, UniProt O54950+Q5EG47)", "T1 construct": "AMPKα1 or AMPKα2 complexes were immunoprecipitated from hepatocyte extracts; endogenous in cells; host or cells: primary mouse hepatocytes", "T1 sequence (Q5EG47 whole entry, canonical isoform)": "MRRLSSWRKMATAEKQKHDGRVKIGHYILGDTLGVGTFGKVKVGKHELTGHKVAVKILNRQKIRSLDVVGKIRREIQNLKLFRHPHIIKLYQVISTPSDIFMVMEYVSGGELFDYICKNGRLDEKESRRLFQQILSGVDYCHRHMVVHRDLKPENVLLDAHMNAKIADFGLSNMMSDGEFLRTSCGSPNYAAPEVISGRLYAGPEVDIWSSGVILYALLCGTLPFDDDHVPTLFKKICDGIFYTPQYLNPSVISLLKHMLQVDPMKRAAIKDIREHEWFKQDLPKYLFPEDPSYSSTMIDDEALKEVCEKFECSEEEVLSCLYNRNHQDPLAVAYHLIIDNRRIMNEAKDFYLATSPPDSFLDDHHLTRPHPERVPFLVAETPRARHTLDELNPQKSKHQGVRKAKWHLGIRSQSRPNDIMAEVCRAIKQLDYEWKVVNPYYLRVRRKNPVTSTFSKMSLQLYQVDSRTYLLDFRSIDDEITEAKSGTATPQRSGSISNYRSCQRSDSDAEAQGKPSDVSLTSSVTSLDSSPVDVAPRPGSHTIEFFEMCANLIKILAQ", "T1 sequence (Q9R078 2-270 partner limits assumed)": "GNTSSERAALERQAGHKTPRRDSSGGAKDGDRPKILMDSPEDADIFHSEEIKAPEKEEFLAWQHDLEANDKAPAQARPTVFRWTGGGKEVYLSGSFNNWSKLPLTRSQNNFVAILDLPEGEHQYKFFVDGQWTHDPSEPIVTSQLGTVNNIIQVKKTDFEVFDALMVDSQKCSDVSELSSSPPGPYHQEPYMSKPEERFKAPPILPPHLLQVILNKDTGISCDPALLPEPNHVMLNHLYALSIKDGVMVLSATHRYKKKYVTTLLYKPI", "T1 sequence (O54950 whole entry, canonical isoform)": "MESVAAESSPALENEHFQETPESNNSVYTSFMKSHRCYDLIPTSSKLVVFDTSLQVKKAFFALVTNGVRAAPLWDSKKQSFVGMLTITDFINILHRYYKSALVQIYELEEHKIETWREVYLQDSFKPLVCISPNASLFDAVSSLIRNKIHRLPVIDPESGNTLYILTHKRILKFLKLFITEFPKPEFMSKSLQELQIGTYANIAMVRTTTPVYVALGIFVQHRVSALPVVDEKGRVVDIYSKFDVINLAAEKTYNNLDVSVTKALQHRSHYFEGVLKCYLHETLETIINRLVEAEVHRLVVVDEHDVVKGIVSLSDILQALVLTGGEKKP", "assay": "Isoform-specific immunoprecipitate kinase assay from hepatocytes", "format": "cell-based", "conditions": "1 hr; washed immunoprecipitates", "description": "(§1) Figure 4 The C2 Prodrug, C13, Potently Activates AMPK in Mouse Primary Hepatocytes (A) Isolated mouse hepatocytes were incubated with vehicle or the indicated concentrations of C13 for 1 hr. AICAR (0.5 mM) was included as a positive control. Cell lysates were analyzed using western blotting with the indicated antibodies. (B) AMPKα1 or AMPKα2 complexes were immunoprecipitated from hepatocyte extracts prepared as described in (A) and assayed for kinase activity using 0.2 mM AMARA and 0.1 mM ATP. Results are expressed as the mean Pi incorporated in picomoles per minute-milligram ± SD. […] Lysates were analyzed using western blotting with the indicated antibodies. (D) Mouse hepatocytes were treated with the indicated compounds for 1 hr, and adenine nucleotide ratios were determined using capillary electrophoresis of perchloric acid extracts. […] Lysates were analyzed using western blotting with the indicated antibodies. […] Lysates were analyzed using western blotting with the indicated antibodies. […]\n(§2) AMPK phosphotransferase activity was assayed in reactions (50 μl) containing 50 mM HEPES, pH 7.4, 10 mM MgCl2, 0.1 mM EGTA, 1 mM DTT, 0.01% BRIJ-35, 100 μM [γ-^32P]ATP (∼250 CPM⋅pmol^−1) and 200 μM AMARA (AMARAASAAALARRR). […] Washed filters were dried and [^32P] incorporation determined by Cherenkov counting. […]"}, "[2]": {"target": "T2, AMPKα2 complexes in primary hepatocytes (Mus musculus, UniProt O54950+Q8BRK8)", "T2 construct": "AMPKα1 or AMPKα2 complexes were immunoprecipitated from hepatocyte extracts; endogenous in cells; host or cells: primary mouse hepatocytes", "T2 sequence (Q8BRK8 whole entry, canonical isoform)": "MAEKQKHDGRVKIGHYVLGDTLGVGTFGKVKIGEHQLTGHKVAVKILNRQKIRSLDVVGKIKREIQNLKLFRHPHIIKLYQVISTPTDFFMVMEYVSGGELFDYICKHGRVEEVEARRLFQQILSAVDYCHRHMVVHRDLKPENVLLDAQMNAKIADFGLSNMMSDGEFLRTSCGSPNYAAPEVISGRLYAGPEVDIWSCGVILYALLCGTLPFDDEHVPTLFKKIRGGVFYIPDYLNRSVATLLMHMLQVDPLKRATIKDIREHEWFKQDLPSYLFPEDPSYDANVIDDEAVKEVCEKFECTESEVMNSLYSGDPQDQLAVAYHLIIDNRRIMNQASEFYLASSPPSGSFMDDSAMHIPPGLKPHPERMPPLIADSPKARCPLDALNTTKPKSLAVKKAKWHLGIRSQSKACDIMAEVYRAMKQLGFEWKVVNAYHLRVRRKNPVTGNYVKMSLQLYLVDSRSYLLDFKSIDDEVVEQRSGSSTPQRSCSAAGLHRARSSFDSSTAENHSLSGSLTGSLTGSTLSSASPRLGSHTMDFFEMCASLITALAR", "T2 sequence (Q9R078 2-270 partner limits assumed)": "as the sequence (Q9R078 2-270 partner limits assumed) above", "T2 sequence (O54950 whole entry, canonical isoform)": "as the sequence (O54950 whole entry, canonical isoform) above", "assay": "Isoform-specific immunoprecipitate kinase assay from hepatocytes", "format": "cell-based", "conditions": "1 hr; washed immunoprecipitates", "description": "as §1, §2"}, "[3]": {"tested_on": "α1-KO hepatocytes", "assay": "Lipid synthesis, [1-14C]acetate incorporation", "format": "cell-based, mouse", "conditions": "1 μM", "description": "Figure 6 C13 Is Relatively Selective for α1 Complexes in Primary Hepatocytes (A) Hepatocytes from WT, AMPKα1^−/−, and AMPKα2^−/− mice were treated with the indicated concentrations of C13 and labeled with [1-^14C]acetate for 3 hr. Rates of fatty acid and sterol synthesis were estimated from incorporation into saponifiable (upper graphs) and nonsaponifiable (lower graphs) lipids. Results are expressed as percentage WT vehicle and represent the mean ± SD for three independent experiments. (B) Mouse hepatocytes were incubated with the indicated concentrations of C13 for 3 hr, and lysates were analyzed using western blotting with the indicated antibodies.\nLipid synthesis was determined by labeling adherent cultures of primary hepatocytes with [1-^14C]acetate. After overnight culture, hepatocytes (5 × 10^5) were washed with warm PBS and allowed to rest for 3 hr in fresh M199. Cells were treated with vehicle (0.1% DMSO) or the indicated compounds and labeled with 1 mCi⋅mmol^−1 [1-^14C]acetate for 3 hr. […] Lipogenesis in hepatocytes from AMPKβ1/β2-KO mice was determined in media containing [^3H]acetate (0.2 mCi⋅mmol^−1). After 4 hr labeling, total lipids were extracted using the method of [Bligh and Dyer (1959)], and incorporated [^3H] was determined by scintillation counting. The results are expressed as micromoles acetate incorporated per gram-hour."}}}
{"smiles": "CC(C)C(=O)OCOP(=O)(OCOC(=O)C(C)C)c1ccc(C2=NOC(=O)C2)o1", "note": "[Compound C13]", "values": [{"measurement": "concentration at which complexes were stimulated", "setting": "[1]", "result": 3, "unit": "µM"}, {"measurement": "concentration above which activation was evident", "setting": "[2]", "result": "above 30 μM"}, {"measurement": "effect on synthesis of saponifiable and nonsaponifiable lipids", "setting": "[3]", "result": "no effect"}]}
